Test results published in ChEMBL document CHEMBL1201862, “PubChem BioAssay data set” (2004).
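Compound exposure: 48 hours, 5 concentrations, 96-well plates. Here, GI50 denotes the concentration required for 50% inhibition of growth.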 The source made the active and inactive calls. Rule as the data show it: active = GI50 up to about 1.1 µM and inactive = higher.

How the values were obtained:
Assay in all cases: NCI tumour cell line growth inhibition, 48 h
HL-60 = system: HL-60
SNB-19 = system: SNB-19
LOX IMVI = system: LOX IMVI
SK-MEL-5 = system: SK-MEL-5
RPMI-8226 = system: RPMI-8226
OVCAR-4 = system: OVCAR-4
HOP-92 = system: HOP-92
COLO 205 = system: COLO 205
UACC-257 = system: UACC-257
MCF7 = system: MCF7
SNB-75 = system: SNB-75
NCI-H460 = system: NCI-H460
SF-295 = system: SF-295
CCRF-CEM = system: CCRF-CEM
UO-31 = system: UO-31
NCI-H226 = system: NCI-H226
KM12 = system: KM12
CAKI-1 = system: CAKI-1
PC-3 = system: PC-3
NCI/ADR-RES = system: NCI/ADR-RES
UACC-62 = system: UACC-62
MDA-MB-435 = system: MDA-MB-435
ACHN = system: ACHN
HCC 2998 = system: HCC 2998
SR = system: SR
SF-539 = system: SF-539
T47D = system: T47D
SK-MEL-28 = system: SK-MEL-28
Hs-578T = system: Hs-578T
MDA-MB-231 = system: MDA-MB-231
SK-OV-3 = system: SK-OV-3
EKVX = system: EKVX
HT-29 = system: HT-29
HCT-116 = system: HCT-116
A498 = system: A498
786-0 = system: 786-0
HOP-62 = system: HOP-62
OVCAR-8 = system: OVCAR-8
K562 = system: K562
SW-620 = system: SW-620
U-251 = system: U-251
RXF 393 = system: RXF 393
HCT-15 = system: HCT-15
MOLT-4 = system: MOLT-4
M14 = system: M14
BT-549 = system: BT-549
IGROV-1 = system: IGROV-1
SK-MEL-2 = system: SK-MEL-2
SF-268 = system: SF-268
NCI-H23 = system: NCI-H23
DU-145 = system: DU-145
TK-10 = system: TK-10
OVCAR-3 = system: OVCAR-3
A549 = system: A549
SN12C = system: SN12C
OVCAR-5 = system: OVCAR-5
NCI-H522 = system: NCI-H522

Q: What does the source list for COc1ccc(NC(S)=Nc2cccc(C)n2)cc1?
A: GI50 (HL-60): > 100 µM (inactive); GI50 (SNB-19): > 100 µM (inactive); GI50 (LOX IMVI): > 100 µM (inactive); GI50 (SK-MEL-5): > 100 µM (inactive); GI50 (RPMI-8226): > 100 µM (inactive); GI50 (OVCAR-4): > 100 µM (inactive); GI50 (HOP-92): 39.5 µM (inactive); GI50 (COLO 205): > 100 µM (inactive); GI50 (UACC-257): > 100 µM (inactive); GI50 (MCF7): > 100 µM (inactive); GI50 (SNB-75): 69.5 µM (inactive); GI50 (NCI-H460): > 100 µM (inactive); GI50 (SF-295): 33.3 µM (inactive); GI50 (CCRF-CEM): > 100 µM (inactive); GI50 (UO-31): > 100 µM (inactive); GI50 (NCI-H226): > 100 µM (inactive); GI50 (KM12): > 100 µM (inactive); GI50 (CAKI-1): 37.9 µM (inactive); GI50 (PC-3): > 100 µM (inactive); GI50 (NCI/ADR-RES): > 100 µM (inactive); GI50 (UACC-62): > 100 µM (inactive); GI50 (MDA-MB-435): > 100 µM (inactive); GI50 (ACHN): > 100 µM (inactive); GI50 (HCC 2998): > 100 µM (inactive); GI50 (SR): > 100 µM (inactive); GI50 (SF-539): 74.6 µM (inactive); GI50 (T47D): > 100 µM (inactive); GI50 (SK-MEL-28): > 100 µM (inactive); GI50 (Hs-578T): 58.2 µM (inactive); GI50 (MDA-MB-231): > 100 µM (inactive); GI50 (SK-OV-3): > 100 µM (inactive); GI50 (EKVX): > 100 µM (inactive); GI50 (HT-29): > 100 µM (inactive); GI50 (HCT-116): > 100 µM (inactive); GI50 (A498): > 100 µM (inactive); GI50 (786-0): 54 µM (inactive); GI50 (HOP-62): 25.6 µM (inactive); GI50 (OVCAR-8): 96.8 µM (inactive); GI50 (K562): 75.3 µM (inactive); GI50 (SW-620): > 100 µM (inactive); GI50 (U-251): 33.5 µM (inactive); GI50 (RXF 393): 28.4 µM (inactive); GI50 (HCT-15): 78.2 µM; GI50 (MOLT-4): > 100 µM (inactive); GI50 (M14): > 100 µM (inactive); GI50 (BT-549): > 100 µM (inactive); GI50 (IGROV-1): 70.6 µM (inactive); GI50 (SK-MEL-2): > 100 µM (inactive); GI50 (SF-268): 55.1 µM (inactive); GI50 (NCI-H23): 84.5 µM (inactive); GI50 (DU-145): > 100 µM (inactive); GI50 (TK-10): > 100 µM (inactive)

Q: For Nc1nc(N)c2ncn(-c3ccccc3)c2n1, which GI50 (OVCAR-3) is on record?
A: Its GI50 is 89.9 µM (inactive).

Q: And the GI50 (A549)?
A: Its GI50 is 48.9 µM (inactive).

Q: And the GI50 (HOP-92)?
A: Its GI50 is > 100 µM (inactive).

Q: And the GI50 (MCF7)?
A: Its GI50 is 63.8 µM (inactive).

Q: And the GI50 (SF-295)?
A: The GI50 was > 100 µM (inactive).

Q: And the GI50 (CCRF-CEM)?
A: The GI50 was 23.7 µM (inactive).

Q: And the GI50 (UO-31)?
A: Its GI50 is 68.2 µM (inactive).

Q: And the GI50 (SN12C)?
A: Its GI50 is 88.3 µM (inactive).

Q: What about the GI50 (KM12) of the same molecule?
A: Its GI50 is 24.2 µM (inactive).

Q: What about the GI50 (CAKI-1) of the same molecule?
A: The GI50 was 82.6 µM (inactive).

Q: And the GI50 (PC-3)?
A: Its GI50 is > 100 µM (inactive).

Q: What about the GI50 (NCI/ADR-RES) of the same molecule?
A: The GI50 was > 100 µM (inactive).

Q: And the GI50 (UACC-62)?
A: Its GI50 is 71 µM (inactive).

Q: What about the GI50 (MDA-MB-435) of the same molecule?
A: The GI50 was > 100 µM (inactive).

Q: What about the GI50 (ACHN) of the same molecule?
A: Its GI50 is > 100 µM (inactive).

Q: And the GI50 (HCC 2998)?
A: Its GI50 is 48.4 µM (inactive).

Q: And the GI50 (T47D)?
A: The GI50 was > 100 µM (inactive).

Q: What about the GI50 (OVCAR-5) of the same molecule?
A: The GI50 was > 100 µM (inactive).

Q: And the GI50 (SK-MEL-28)?
A: Its GI50 is > 100 µM (inactive).

Q: And the GI50 (Hs-578T)?
A: The GI50 was 52.6 µM (inactive).

Q: What about the GI50 (NCI-H522) of the same molecule?
A: The GI50 was > 100 µM (inactive).

Q: And the GI50 (MDA-MB-231)?
A: The GI50 was > 100 µM (inactive).

Q: What about the GI50 (SK-OV-3) of the same molecule?
A: Its GI50 is > 100 µM (inactive).

Q: And the GI50 (HT-29)?
A: Its GI50 is > 100 µM (inactive).

Q: What about the GI50 (HCT-116) of the same molecule?
A: The GI50 was > 100 µM (inactive).

Q: What about the GI50 (A498) of the same molecule?
A: The GI50 was > 100 µM (inactive).

Q: And the GI50 (OVCAR-8)?
A: The GI50 was > 100 µM (inactive).

Q: And the GI50 (RXF 393)?
A: Its GI50 is 57.9 µM (inactive).

Q: What about the GI50 (HCT-15) of the same molecule?
A: The GI50 was over 100 µM.

Q: And the GI50 (MOLT-4)?
A: Its GI50 is 29.6 µM (inactive).

Q: What about the GI50 (M14) of the same molecule?
A: Its GI50 is > 100 µM (inactive).

Q: And the GI50 (BT-549)?
A: Its GI50 is > 100 µM (inactive).

Q: What about the GI50 (IGROV-1) of the same molecule?
A: The GI50 was 36.3 µM (inactive).

Q: What about the GI50 (SF-268) of the same molecule?
A: Its GI50 is > 100 µM (inactive).

Q: What about the GI50 (NCI-H23) of the same molecule?
A: Its GI50 is > 100 µM (inactive).

Q: What about the GI50 (DU-145) of the same molecule?
A: The GI50 was > 100 µM (inactive).

Q: And the GI50 (TK-10)?
A: The GI50 was > 100 µM (inactive).
